Assay results published in the METLIN SMRT retention time set (Domingo-Almenara et al. 2019).

Test: gradient 5% acetonitrile 3 min, to 50% in 2 min, to 85% in 15 min, held 3 min, 100 µL/min
Conditions: column: Zorbax Extend-C18 2.1 x 50 mm; eluents: water / acetonitrile, 0.1% formic acid
Outline: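 Pure standards were run in mixtures of ~100 molecules by HPLC coupled to a quadrupole time-of-flight mass spectrometer. The column was a Zorbax Extend-C18 (2.1 × 50 mm, 1.8 μm) at 100 μL/min, with water and acetonitrile each containing 0.1% formic acid, in positive and negative ionization mode. Dead and dwell volumes were 40 μL and 900 μL. Retention time was taken from computationally picked adduct peaks, each manually inspected, with data collected over 3 months.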

SMILES | RP-LC retention time [s]
CCc1ccc(C2=C(C)C(N3CCCN(C(=O)CCOC)CC3)=NS2(=O)=O)cc1 | 795
CCc1ccc(-c2nc(-c3ccc4nnc(CC)n4c3)no2)cc1 | 1140
O=S(=O)(c1ccc2c(c1)OCCO2)N1CCCn2nc(-c3cccs3)cc2C1 | 908
COC(=O)c1ccccc1NC(=O)C12CCC(C1)C(C)(C)C2=O (centres undefined) | 951
COC(=O)c1cc(S(=O)(=O)N2CCCC2C(=O)Nc2ccccc2F)cn1C (centres undefined) | 844
Cc1cc(C)cc(NC(=O)Cn2c(N3CCC(C)CC3)nc(C)cc2=O)c1 | 796
CCn1c(=O)c(NCc2cc(F)ccc2F)nc2ccncc21 | 568
CNC(=O)c1cc(COc2ccc(NC(=O)c3ccc(Br)cc3)cc2)on1 | 830
CCOc1cccc(-c2noc(Cc3nnc(-c4ccc(C)c(F)c4)o3)n2)c1 | 1160
COc1ccc2[nH]c3c(c2c1)CCNC31CCN(Cc2ccc(F)cc2F)CC1 | 580
COCCCNC(=O)C1CCCN(c2nc3ccc(Cl)cc3[nH]2)C1 (centres undefined) | 610
CCN1C(=O)COc2ccc(-c3nc(NC(=O)c4ccco4)sc3C)cc21 | 883
CCOc1ccc(-c2noc(Cn3ccnc3)n2)cc1 | 635
O=S(=O)(c1cc(-c2cc(C(F)(F)F)on2)cs1)N1CCN(c2ccc(Cl)cc2)CC1 | 1290
Cc1ccc(CNC(=O)Nc2ccc(-c3nc(-c4cc(C)ccc4C)co3)cc2)cc1 | 1240
CC1Cc2nc(SCC(=O)NCC3CCCO3)n(-c3ccc(F)cc3)c(=O)c2S1 (centres undefined) | 728
COC(=O)C[C@](O)(CCCC(C)(C)O)C(=O)O[C@@H]1C(OC)=C[C@]23CCCN2CCc2cc4c(cc2[C@H]13)OCO4 | 662
Cc1cc(C)n(CC(C)C(=O)Nc2ccc(Br)cc2)n1 (centres undefined) | 800
CCCOc1nccnc1N1CCC(N(C)C(=O)c2ccc(C)nc2)C1 (centres undefined) | 657
CCCN1CCN(C(=O)C2CC(=O)N(c3ccc4c(c3)CCN4C(=O)CC)C2)CC1 (centres undefined) | 566
Cc1nc(N2CCOCC2)c2c(C(=O)N3CCN(c4cccc(C)c4C)CC3)c(C)oc2n1 | 1000
CN(CC1(C)CCOCC1)S(=O)(=O)c1ccccc1C(F)(F)F | 820

SMILES | RP-LC retention time [s]
CCCn1ccc2oc(C)c(C(=O)N3CCN(CC(C)C)CC3)c2c1=O | 575
CCCN(C)c1nccnc1OC1CCN(C(=O)C2CCCCC2)C1 (centres undefined) | 938
Cc1noc(C2CN(C(=O)c3ccc4ncsc4c3)C2)n1 | 593
Cc1ccc(CNC(=O)C2(C)CN(S(C)(=O)=O)CC(=O)N2Cc2ccc(Cl)cc2)cc1 (centres undefined) | 906
COc1ccc(C(O)Cn2ccn3nc(-c4cc(C)ccc4C)cc3c2=O)cc1OC (centres undefined) | 879
O=C(Nc1cccc(F)c1)C(=O)c1ccc[nH]1 | 846
CN1CCC(OC2CCN(C(=O)c3ccc(Br)cc3)CC2)CC1 | 615
CC1CCc2c(sc(NC(=O)Cc3ccc4c(c3)OCO4)c2C#N)C1 (centres undefined) | 1070
CCCC(=O)Nc1nnc(SCc2nnc(-c3ccccc3)o2)s1 | 779
CC(=O)N1CCCc2cc(S(=O)(=O)CCC(=O)N3CCN(c4cccc(C)c4)C(C)C3)ccc21 (centres undefined) | 750
O=C(Cc1nnc(-c2cnccn2)o1)Nc1ccccc1Cl | 681
CCC(C)NC(=O)Cn1ncc2c(c1=O)N(C)C(=O)CS2 (centres undefined) | 606
COc1ccc(C2C(C(=O)O)CCC(=O)N2c2ccc(OC)cc2)cc1 (centres undefined) | 656
CCCN1C(=O)COc2ccc(-c3noc(-c4ccc(C#N)cc4)n3)cc21 | 1130
Cc1ccc(NC(=O)Cn2c(N)nc(C)c(C)c2=O)c(C)c1 | 608
CCNC(=O)c1cc(C)on1 | 596
COCCc1noc(C2CN(C(=O)c3cn(C)cn3)C2)n1 | 555
COC(=O)CSC1=C(C#N)C(c2ccsc2)CC(=O)N1 (centres undefined) | 707
COC(=O)c1c(NCc2ccc(SC)cc2)c2cccc(Cl)c2[nH]c1=O | 853
CCn1ccc(-c2nc(-c3ccc4oc(-c5ccccc5)nc4c3)no2)n1 | 1130
CCc1ccc(C(C)NC(=O)c2ccnc3c(NC(C)=O)cccc23)cc1 (centres undefined) | 896
CCc1noc(NC(C)=O)c1-c1ccc(C)c(S(=O)(=O)Nc2cc(C)ccc2C)c1 | 900

Results, then the compound that gave them:

RP-LC retention time [s] | SMILES
930 | CC(Oc1ccccc1)C(=O)Nc1ccc2c(c1)Sc1ncccc1C(=O)N2C(C)C (centres undefined)
928 | Cc1ccc(-n2c(=O)c3c(cc(C)n3C)n(CC(=O)N3CCc4ccccc43)c2=O)cc1
1030 | COc1cccc(CNC(=O)c2nnc(-c3ccc(S(=O)(=O)N4CCC(C)CC4)cc3)o2)c1
846 | Cc1csc(-c2ccc(N3CCN(C(=O)c4ccc(F)c(F)c4)CC3)nc2)n1
633 | CN1C(=O)C(C)(C)c2cc(S(=O)(=O)N3CCN(c4ccccn4)CC3)ccc21
1100 | Cc1ccc(Sc2nccnc2N2CCCC(C(=O)NCc3ccc(F)cc3)C2)cc1 (centres undefined)
1050 | COc1ccc(Cl)cc1NC(=O)C1CCN(S(=O)(=O)c2cc(-c3noc(C)n3)cs2)CC1
961 | c1ccc(-c2nc3nc4c(c(Nc5ccc6c(c5)OCCO6)n3n2)CCC4)cc1
829 | O=C(NC1CCCCCC1)c1ccc2c(c1)nc1n2CCN(Cc2ccccc2)C1=O
671 | CCC(=O)Nc1ccc(CCc2nc3ccc(C(=O)NC4CCCCCC4)cc3[nH]2)cc1
856 | Cc1oc(C2CCN(S(=O)(=O)c3cccs3)CC2)nc1C(=O)N1CCCC1
708 | Cc1ccc(CNC(=O)C2CCCN(c3nnc4ccccn34)C2)cc1C (centres undefined)
903 | Cc1cc(-c2nnc(-c3ccccc3)o2)c(C)n1CC(=O)NCc1ccccc1
544 | COc1ccc(CN2CCN(c3cnn4c(C5CC5)nnc4c3)CC2)cc1
684 | Cc1noc(COC2CCCN(C(=O)NCc3ccccc3)C2)n1 (centres undefined)
902 | COc1ccccc1OCCC1CCN(S(=O)(=O)c2ccc3c(c2)C(C)(C)C(=O)N3)C1 (centres undefined)
1000 | O=C(Cn1c(=O)cc(-c2nc(C3CC3)no2)c2ccccc21)NCCc1ccc(Cl)cc1
659 | O=C(NCc1ccc2c(c1)OCO2)C1CCN(c2cnc3nccnc3c2)CC1
672 | CNC(=O)C1CCCN(c2nc3ncn(CC(=O)Nc4cccc(Cl)c4)c(=O)c3s2)C1 (centres undefined)
602 | Cn1c2c(c(=O)n3ncc(C(=O)N4CCN(c5ccccn5)CC4)c13)CN(Cc1ccccc1)CC2
1190 | O=C1C(Cl)=C(NCCc2ccccc2)C(=O)c2ccccc21
818 | Cc1sc2ccn(C)c(=O)c2c1C(=O)Nc1ccccc1
804 | O=C(CSc1nc(N2CCCCC2)nc2ccccc12)Nc1ccc(Cl)cc1

RP-LC retention time [s] | SMILES
690 | CN1CCN(C(=O)c2csc(N3CCN(c4cccc(Cl)c4)CC3)n2)CC1
964 | COc1cccc(-c2noc(C3CCCN3C(=O)Nc3ccc(Br)cc3)n2)c1 (centres undefined)
851 | CC(C)NC(=O)c1nnc(-c2ccc(S(=O)(=O)N3CCCCC3)cc2)o1
929 | COc1ccccc1N1CCN(c2cc(SCC(=O)NCc3ccc(SC)cc3)ncn2)CC1
805 | COc1cccc(N2CCN(c3ccnc(SCC(=O)Nc4ccc(Cl)cc4)n3)CC2)c1
753 | Cc1ccccc1CNC1=NCCNC12CCN(S(=O)(=O)c1ccc(Cl)cc1)CC2
712 | Cc1ccc(C)c(NC(=O)N2CC(n3cnnc3-c3ccccc3)C2)c1
747 | Cc1c2cnn(CC(=O)NCC3CCCO3)c(=O)c2c(C)n1Cc1ccccc1F (centres undefined)
830 | Cc1sc(NC(=O)Cc2ccccc2)nc1-c1ccc2c(c1)NC(=O)CO2
703 | O=C(NCc1ccccn1)c1ccc2c(c1)CCCN2S(=O)(=O)c1ccccc1
602 | CCN1CCN(CCCNC(=O)c2c(N3CCCC3=O)c3cc(F)ccc3n2CC)CC1
959 | COc1ccc(-c2noc(C3CCCN3C(=O)c3ccc(Cl)cc3)n2)cc1OC (centres undefined)
1010 | Cc1ccc(N2N=NC3C(=O)N(c4ccccc4)C(=O)C32)cc1C (centres undefined)
1060 | C=CCN1C(=O)COc2ccc(-c3csc(NC(=O)c4cccc(C)c4)n3)cc21
612 | Cc1cc(N2CCOCC2)nc(N2CCN(C(=O)c3ccccc3Br)CC2)n1
703 | NC(=O)C1CCN(C(=O)c2cccc(NC(=O)c3nsc4ccccc34)c2)CC1
906 | COc1ccc(-c2cc3c(=O)n(Cc4ccccc4)ccn3n2)cc1OC
649 | CN(C)c1ccc(CNC(=O)c2cc3n(n2)CC(C)(C(=O)NC2CCCCCC2)N(C)C3=O)cc1 (centres undefined)
709 | CC(C)Cn1c(CCNC(=O)c2cccc(F)c2)nc2cccnc21
730 | Cc1ccc(N2CCn3c2nc2c3c(=O)n(CC(=O)O)c(=O)n2C)cc1
1050 | Cc1ccc(NC(=O)N2CCCC2c2nc(-c3ccc(F)cc3F)no2)c(C)c1 (centres undefined)
841 | O=C(Cc1ccccc1Cl)N1CCC2(CC1)N=C(c1ccccc1)NO2
